Series [1] has as its system high-fat-fed mice. In words: Subchronic 21 day twice-daily treatment: energy intake, body weight, body composition, non-fasted glucose and insulin. In kind it is in vivo, mouse. The following applies: 25 nmol/kg i.p. twice daily. On the procedure:
(§1) Twice-daily (09:30 and 17:30 hours) i.p. injections of saline vehicle, (DAla^2)GIP or (DAla^2)GIP/xenin-8-Gln hybrid (both at 25 nmol/kg) were administered for 21 days in high-fat-fed mice. Energy intake and body weight were monitored daily and non-fasting blood glucose and plasma insulin concentrations were assessed at 3 day intervals. On day 21, a non-fasted 24 h glucose profile was conducted. At the end of the treatment period, i.p. glucose tolerance (18 mmol/kg), biological response to GIP (18 mmol/kg glucose in combination with native GIP [25 nmol/kg], i.p.) and insulin sensitivity (15 U/kg; i.p.) tests were performed. Terminal analysis included measurement of total body fat and lean mass by dual-energy X-ray absorptiometry (DEXA) scanning (Piximus Densitometer; Inside Outside Sales, Fitchburg, WI, USA) and extraction of pancreatic tissue for analysis as detailed below.
Blood samples were collected from the cut tip on the tail vein of conscious mice into chilled fluoride/heparin glucose micro-centrifuge tubes (Sarstedt, Numbrecht, Germany). Blood glucose was measured directly using a hand-held Ascencia Contour blood glucose meter (Bayer Healthcare, Newbury, UK). Plasma and pancreatic insulin was assayed by a modified dextran-coated charcoal radioimmunoassay.
In vitro insulin release studies Cells were seeded at a density of 150,000 cells/well in 24-well plates (Nunc, Roskilde, Denmark) and allowed to attach overnight at 37 °C. Culture medium was removed and cells were pre-incubated in Krebs–Ringer bicarbonate buffer (containing 0.5% (w/v) BSA, pH 7.4) supplemented with 1.1 mmol/l glucose for 40 min at 37 °C. Following the pre-incubation, experiments (n=8) were performed in presence of glucose (5.6 or 16.7 mmol/l) with a […]
incubations, aliquots of assay buffer were collected from each well and stored at -20 °C prior to […]
Animals Acute animal studies were conducted in male NIH Swiss mice (12-14 weeks old, Harlan Ltd, UK) maintained on a standard rodent maintenance diet (10% fat, 30% protein and 60% carbohydrate, Trouw Nutrition, UK). Prior to commencement of longer term studies, all animals, except lean controls that continued on rodent maintenance diet, were maintained on a high-fat diet (45% fat, 35% carbohydrate and 20% protein, Special Diet Services, UK) for 12 weeks. This diet […]
individually in an air-conditioned room at 22 ± 2 °C with a 12 h light:12 h dark cycle and had free access to food and water. Animal experiments were carried out in accordance with the UK Animals (Scientific Procedures) Act 1986.
Acute in vivo effects in lean mice For food intake studies, fasted (18 h) mice were given intraperitoneal (i.p) injections of peptides at a dose of 25, 100 or 250 nmol/kg bw. Mice were then allowed free access to normal chow for 180 mins and cumulative food intake measured. For glucose homeostasis and […]

The subject of series [2] is high-fat-fed mice. In words: Glucose tolerance test after 21 day treatment. The following applies: AUC 0–105 min after i.p. glucose 18 mmol/kg; 25 nmol/kg twice daily for 21 days; 18 h fasted high-fat-fed mice; mean ± SEM, 6–8 mice. In kind it is in vivo, mouse. As to the method:
as §1

In series [3] the test system is high-fat-fed mice. Nature of the series: Pancreatic insulin content and islet histology after 21 day treatment. The class given is in vivo, mouse. The settings on record: 21 days at 25 nmol/kg twice daily i.p. On the procedure: Pancreas tissue was excised, divided longitudinally and either snap frozen for extraction of insulin using acid ethanol (5 ml/g), as described previously, or processed for immunohistochemical examination. Immunohistochemistry was performed as described previously. For specific details, please see ESM Methods. […]
insulin secretory studies, blood glucose and plasma insulin were measured immediately prior to and 15, 30, 60 and 105 min after i.p. administration of glucose alone (18 mmol/kg bw) or in combination with test peptides (each at 25 nmol/kg bw) in non-fasted mice.
Immunohistochemistry Tissue sections were deparaffinised, rehydrated and probed with primary antibodies: mouse anti-insulin antibody (1:500; Abcam, ab6995), guinea-pig anti-glucagon antibody (PCA2/4, 1:400; raised in-house) or rabbit anti-Ki67 (1:200; Abcam ab16667), as appropriate. We confirmed the specificity of all antibodies in blocking experiments using the native peptide. Sections were then incubated with secondary antibody, Alexa Fluor 488 goat anti-guinea pig IgG (1:400), Alexa Fluor 594 goat anti-mouse IgG (1:400) or Alexa Fluor 594 goat anti-rabbit IgG (1:400); respectively. TUNEL staining was performed using fluorescein in situ cell detection kit (Roche Diagnostics, Germany). The slides were viewed under a FITC (488 nm) or TRITC filter (594 nm) using a fluorescent microscope (Olympus system microscope, model BX51) and photographed using a DP70 camera adapter system. Islet parameters were analysed using CellF image analysis software (Olympus Soft Imaging Solutions, GmbH).

The target in the next series is purified porcine DPP-4 (Sus scrofa, UniProt P22411). Nature of the series: DPP-4 degradation / in vitro DPP-4 half-life. The following applies: 20 μg peptide, 5 mU purified DPP-4, up to 12 h, HPLC. On the procedure: Peptide (20 μg) DPP-4 degradation profiles (5 μl purified DPP-4, 5 mU; Sigma-Aldrich, UK) were assessed as described previously.
Sequence of purified porcine DPP-4 (P22411 whole entry): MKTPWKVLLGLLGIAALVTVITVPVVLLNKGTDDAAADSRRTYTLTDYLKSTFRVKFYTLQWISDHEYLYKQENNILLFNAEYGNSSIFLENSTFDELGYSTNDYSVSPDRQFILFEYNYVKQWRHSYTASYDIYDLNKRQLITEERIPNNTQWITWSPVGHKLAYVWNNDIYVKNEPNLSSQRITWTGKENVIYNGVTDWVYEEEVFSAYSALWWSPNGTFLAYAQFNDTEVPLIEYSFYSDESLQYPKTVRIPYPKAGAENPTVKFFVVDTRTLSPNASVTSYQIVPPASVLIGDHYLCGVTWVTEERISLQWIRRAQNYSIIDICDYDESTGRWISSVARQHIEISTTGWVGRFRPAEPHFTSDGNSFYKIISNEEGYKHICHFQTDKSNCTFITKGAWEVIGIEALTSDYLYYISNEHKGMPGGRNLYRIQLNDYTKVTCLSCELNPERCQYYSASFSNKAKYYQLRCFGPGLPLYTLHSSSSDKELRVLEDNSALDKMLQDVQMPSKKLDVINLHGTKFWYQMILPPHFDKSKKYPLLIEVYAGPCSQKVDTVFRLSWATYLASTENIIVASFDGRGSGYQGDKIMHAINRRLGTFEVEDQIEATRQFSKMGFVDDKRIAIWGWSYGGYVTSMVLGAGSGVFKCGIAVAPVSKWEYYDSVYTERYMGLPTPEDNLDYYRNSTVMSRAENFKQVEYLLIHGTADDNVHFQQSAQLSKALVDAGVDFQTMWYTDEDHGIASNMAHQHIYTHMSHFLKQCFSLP
For calculation of experimental molecular masses, peptide samples (1 µg) were mixed with α-cyano-4-hydroxycinnamic acid (1 µg) and applied to a Voyager-DE BioSpectrometry Workstation and mass-to-charge (m/z) ratio verses peak intensity recorded by MALDI-TOF mass spectrometry. DPP-4 half-life was assessed by incubating peptides (37°C in 50 mmol/L TEA-HCl; pH 7.8) with 5 mU purified porcine DPP-4 for 0, 1, 2, 4, 8 and 12 h. Degradation profiles were obtained using rp-HPLC analysis and HPLC peak area data used to calculate percentage intact peptide remaining at each time point.

The mark [4] stands for this setting: 21 days, high-fat-fed mice, vs high-fat-fed controls.

These results are taken from publication PMC6518372, “An enzymatically stable GIP/xenin hybrid peptide restores GIP sensitivity, enhances beta cell function and improves glucose homeostasis in high-fat-fed mice” (Diabetologia, 2016).

For `CC[C@H](C)[C@H](NC(=O)[C@H](CO)NC(=O)[C@H](Cc1ccc(O)cc1)NC(=O)[C@H](CC(=O)O)NC(=O)[C@H](CO)NC(=O)[C@@H](NC(=O)[C@H](Cc1ccccc1)NC(=O)[C@@H](NC(=O)CNC(=O)[C@H](CCC(=O)O)NC(=O)[C@@H](C)NC(=O)[C@@H](N)Cc1ccc(O)cc1)[C@@H](C)O)[C@@H](C)CC)C(=O)N[C@@H](C)C(=O)N[C@@H](CCSC)C(=O)N[C@@H](CC(=O)O)C(=O)N[C@@H](CCCCN)C(=O)N[C@H](C(=O)N[C@@H](Cc1c[nH]cn1)C(=O)N[C@@H](CCC(N)=O)C(=O)N[C@@H](CCC(N)=O)C(=O)N[C@@H](CC(=O)O)C(=O)N[C@@H](Cc1ccccc1)C(=O)N[C@H](C(=O)N[C@@H](CC(N)=O)C(=O)N[C@@H](Cc1c[nH]c2ccccc12)C(=O)N[C@@H](CC(C)C)C(=O)N[C@@H](CC(C)C)C(=O)N[C@@H](C)C(=O)N[C@@H](CCC(N)=O)C(=O)N[C@@H](CCCCN)C(=O)NCC(=O)N[C@@H](CCCCN)C(=O)N[C@@H](CCCCN)C(=O)N[C@@H](CC(N)=O)C(=O)N[C@@H](CC(=O)O)C(=O)N[C@@H](Cc1c[nH]c2ccccc12)C(=O)N[C@@H](CCCCN)C(=O)N[C@@H](Cc1c[nH]cn1)C(=O)N[C@@H](CC(N)=O)C(=O)N[C@H](C(=O)N[C@H](C(=O)N[C@@H](CCC(N)=O)C(=O)O)[C@@H](C)O)[C@@H](C)CC)C(C)C)[C@@H](C)CC` [(DAla^2)GIP], in the series on high-fat-fed mice [1] (setting [4]), the Body weight entry is given as “no significant effect” and the Cumulative energy intake entry is “no significant effect”. Also, in the series with high-fat-fed mice [1] (day 21, high-fat-fed mice), the “Non-fasting 24 h blood glucose profile” value is listed as “also reduced, but not to the same extent”; the “Total body fat and lean mass (DEXA)” value was “unaltered”. Besides, in the series on high-fat-fed mice [1] (day 21, high-fat-fed mice, vs high-fat-fed controls), the Non-fasted plasma insulin entry is “reduced plasma insulin levels compared with high-fat-fed controls on day 21 but the difference did not reach statistical significance”. For the same molecule, the “Non-fasting blood glucose compared with lean controls” value with high-fat-fed mice [1] (high-fat-fed mice, from day 12 onwards) is reported as “not significantly different from lean controls”. In the series on high-fat-fed mice [2], the “Glucose tolerance test: Blood glucose AUC” value amounted to 1714.7 ± 138.6 mmol·min/L and the “Glucose tolerance test: Plasma insulin AUC” value is listed as 11,253 ± 1590 pmol/l × min. For the same molecule, in the series with high-fat-fed mice [3], the Beta cell area entry is “no significant effect on overall pancreatic islet area or beta cell area” and the Pancreatic islet area entry is reported as “no significant effect on overall pancreatic islet area or beta cell area”. Moreover, in the series on high-fat-fed mice [3] (vs all other groups), the “Number of islets per mm^2” value is “significantly (p < 0.05 to p < 0.01) augmented”. Moreover, in the series with high-fat-fed mice [3] (vs high-fat-fed controls), the Alpha cell area entry is reported as “decreased (p < 0.001) alpha cell area” and the “Frequency of beta cell apoptosis (TUNEL)” value is “significantly (p < 0.01) decreased”. On purified porcine DPP-4, the “Stability when incubated in the presence of DPP-4” value is given as “remained fully intact”.
